Data from patent publication US20180000085A1, “USE OF PICOLINAMIDE COMPOUNDS WITH FUNGICIDAL ACTIVITY” (DOW AGROSCIENCES LLC, priority 2014, published 2018).

Assays:
[1] = tested on: Zymoseptoria tritici; assay: Leaf blotch of wheat (SEPTTR) disease control on wheat seedlings; type: in vivo; set-up: key to SEPTTR 1DP, HV activity at 100 ppm (% control rating) / SEPTTR 3DC, HV activity at 100 ppm (% control rating) / SEPTTR disease control, 1DP / SEPTTR disease control, 3DC / SEPTTR 1DP disease control rating, HV activity / SEPTTR 3DC disease control rating, HV activity / SEPTTR 3DC, LV activity at 125.1 g/H (% Control rating) / SEPTTR 1DP, LV activity at 125.1 g/H (% Control rating) / SEPTTR 1DP disease control rating, LV activity at 125.1 g/H / SEPTTR 3DC disease control rating, LV activity at 125.1 g/H / SEPTTR 3DC disease control rating, HV activity at 100 ppm / SEPTTR 1DP disease control rating, HV activity at 100 ppm / HV activity at 100 ppm SEPTTR 3DC (disease control rating) / HV activity at 100 ppm SEPTTR 1DP (disease control rating) / LV activity at 125.1 g/H SEPTTR 1DP (disease control rating) / LV activity at 125.1 g/H SEPTTR 3DC (disease control rating): A: > 80; B: ≤ 80; C: Not Tested; D: No Activity Observed in the Reported Assay; conditions: for SEPTTR 1DP disease control rating, HV activity at 100 ppm / SEPTTR 3DC disease control rating, HV activity at 100 ppm / SEPTTR 1DP, HV activity at 100 ppm (% control rating) / SEPTTR 3DC, HV activity at 100 ppm (% control rating): high volume application; for SEPTTR 1DP disease control rating, HV activity at 100 ppm / SEPTTR 1DP disease control rating, LV activity at 125.1 g/H: 1 day protectant; for SEPTTR 3DC disease control rating, HV activity at 100 ppm / SEPTTR 3DC disease control rating, LV activity at 125.1 g/H: 3 day curative; for SEPTTR disease control, 1DP / SEPTTR disease control, 3DC: HV activity at 100 ppm, wheat; for SEPTTR 1DP disease control rating, HV activity / SEPTTR 3DC disease control rating, HV activity: HV application at 100 ppm
Method: (§1) All fungicides were evaluated using the aforementioned method for their activity vs. all target diseases, unless stated otherwise. Wheat leaf blotch and brown rust activity were also evaluated using track spray applications, in which case the fungicides were formulated as EC formulations, containing 0.1% Trycol 5941 in the spray solutions. Wheat plants (variety Yuma) were grown from seed in a greenhouse in 50% mineral soil/50% soil-less Metro mix until the first leaf was fully emerged, with 7-10 seedlings per pot. These plants were inoculated with an aqueous spore suspension of Zymoseptoria tritici either prior to or after fungicide treatments. After inoculation the plants were kept in 100% relative humidity (one day in a dark dew chamber followed by two to three days in a lighted dew chamber at 20° C.) to permit spores to germinate and infect the leaf. The plants were then transferred to a greenhouse set at 20° C. for disease to develop. When disease symptoms were fully expressed on the 1st leaves of untreated plants, infection levels were assessed on a scale of 0 to 100 percent disease severity. Percent disease control was calculated using the ratio of disease severity on treated plants relative to untreated plants.

[2] = tested on: Puccinia triticina; assay: Wheat brown rust (PUCCRT) disease control on wheat seedlings; type: in vivo; set-up: key to PUCCRT 3DC, HV activity at 100 ppm (% control rating) / PUCCRT disease control, 3DC / PUCCRT 1DP disease control rating, HV activity / PUCCRT 3DC disease control rating, HV activity / PUCCRT 3DC, LV activity at 125.1 g/H (% Control rating) / PUCCRT 1DP, LV activity at 125.1 g/H (% Control rating) / PUCCRT 3DC disease control rating, LV activity at 125.1 g/H / PUCCRT 1DP disease control rating, LV activity at 125.1 g/H / PUCCRT 3DC disease control rating, HV activity at 100 ppm / PUCCRT 1DP disease control rating, HV activity at 100 ppm / HV activity at 100 ppm PUCCRT 3DC (disease control rating) / LV activity at 125.1 g/H PUCCRT 1DP (disease control rating) / LV activity at 125.1 g/H PUCCRT 3DC (disease control rating): A: > 80; B: ≤ 80; C: Not Tested; D: No Activity Observed in the Reported Assay; conditions: for PUCCRT 1DP disease control rating, HV activity at 100 ppm / PUCCRT 3DC disease control rating, HV activity at 100 ppm / PUCCRT 1DP, HV activity at 100 ppm (% control rating) / PUCCRT 3DC, HV activity at 100 ppm (% control rating): high volume application; for PUCCRT 1DP disease control rating, HV activity at 100 ppm / PUCCRT 1DP disease control rating, LV activity at 125.1 g/H: 1 day protectant; for PUCCRT 3DC disease control rating, HV activity at 100 ppm / PUCCRT 3DC disease control rating, LV activity at 125.1 g/H: 3 day curative; for PUCCRT disease control, 1DP / PUCCRT disease control, 3DC: HV activity at 100 ppm, wheat; for PUCCRT 1DP disease control rating, HV activity / PUCCRT 3DC disease control rating, HV activity: HV application at 100 ppm
Method: as §1, with “plants. Example B: Evaluation of Fungicidal Activity: Wheat Brown Rust (Puccinia triticina; Synonym: Puccinia recondita f. sp. Tritici; Bayer Code PUCCRT) Wheat plants (variety Yuma) were grown from seed in a greenhouse in 50% mineral soil/50% soil-less Metro mix until the first leaf was fully emerged, with 7-10 seedlings per pot. These plants were inoculated with an aqueous spore suspension of Puccinia triticina either prior to or after fungicide treatments. […] The plants were then transferred to a greenhouse set at 24° C. for disease to develop. Fungicide formulation, application and disease assessment followed the procedures as described in the Example A.” for “plants.”

[3] = low volume application, 125.1 g/H
[4] = 1 Day Protectant, wheat leaf blotch
[5] = 3 Day Curative, wheat leaf blotch
[6] = 1 Day Protectant, wheat brown rust
[7] = 3 Day Curative, wheat brown rust

| SMILES | SEPTTR 1DP disease control rating, HV activity at 100 ppm [1] | SEPTTR 3DC disease control rating, HV activity at 100 ppm [1] | PUCCRT 1DP disease control rating, HV activity at 100 ppm [2] | PUCCRT 3DC disease control rating, HV activity at 100 ppm [2] | SEPTTR disease control, 1DP ([1]; 1 Day Protectant) | SEPTTR disease control, 3DC ([1]; 3 Day Curative) | SEPTTR 1DP disease control rating, HV activity [1, 4] | SEPTTR 3DC disease control rating, HV activity [1, 5] | SEPTTR 1DP, HV activity at 100 ppm (% control rating) [1] | SEPTTR 3DC, HV activity at 100 ppm (% control rating) [1] | PUCCRT disease control, 1DP ([2]; 1 Day Protectant) | PUCCRT disease control, 3DC ([2]; 3 Day Curative) | PUCCRT 1DP disease control rating, HV activity [2, 6] | PUCCRT 3DC disease control rating, HV activity [2, 7] | PUCCRT 1DP, HV activity at 100 ppm (% control rating) [2] | PUCCRT 3DC, HV activity at 100 ppm (% control rating) [2] | further results |
| --- | --- | --- | --- | --- | --- | --- | --- | --- | --- | --- | --- | --- | --- | --- | --- | --- | --- |
| COc1ccnc(C(=O)NC(C)C(=O)OC(C)C(Oc2ccccc2)c2nccs2)c1O (mixture of isomers) [Cmpd 808] | B (≤ 80) | D | A (> 80) | B (≤ 80) | – | – | – | – | – | – | – | – | – | – | – | – | – |
| COc1ccnc(C(=O)NC(Cc2ccccc2)C(=O)OC(C)C(Oc2ccccc2)C(C)C)c1O (mixture of isomers) [Cmpd 812] | B (≤ 80) | B (≤ 80) | A (> 80) | A (> 80) | – | – | – | – | – | – | – | – | – | – | – | – | – |
| COc1ccnc(C(=O)NC(C)C(=O)OC(C)C(Oc2ccc(F)cc2)c2ccc(F)cc2)c1O (mixture of isomers) [Cmpd 838] | A (> 80) | A (> 80) | A (> 80) | B (≤ 80) | – | – | – | – | – | – | – | – | – | – | – | – | – |
| COc1ccnc(C(=O)NC(C)C(=O)OC(C)C(Oc2ccccc2)c2nccs2)c1OCOC(C)=O (mixture of isomers) [Cmpd 861] | – | – | – | – | – | – | – | – | – | – | – | – | – | – | – | – | SEPTTR 1DP disease control rating, LV activity at 125.1 g/H [1, 3]: D; SEPTTR 3DC disease control rating, LV activity at 125.1 g/H [1, 3]: B (≤ 80); PUCCRT 1DP disease control rating, LV activity at 125.1 g/H [2, 3]: A (> 80); PUCCRT 3DC disease control rating, LV activity at 125.1 g/H [2, 3]: A (> 80) |
| COc1ccnc(C(=O)NC(C)C(=O)OC(C)(C)C(Oc2ccccc2)C(C)C)c1OCOC(C)=O (mixture of isomers) [Cmpd 903] | – | – | – | – | – | – | – | – | – | – | – | – | – | – | – | – | SEPTTR 1DP disease control rating, LV activity at 125.1 g/H [1, 3]: B (≤ 80); SEPTTR 3DC disease control rating, LV activity at 125.1 g/H [1, 3]: A (> 80); PUCCRT 1DP disease control rating, LV activity at 125.1 g/H [2, 3]: B (≤ 80); PUCCRT 3DC disease control rating, LV activity at 125.1 g/H [2, 3]: D |
| COc1ccnc(C(=O)NC(C(=O)OC(C)C(Oc2ccccc2)C(C)C)C(F)(F)F)c1O (mixture of isomers) [Cmpd 1018] | A (> 80) | D | A (> 80) | A (> 80) | – | – | – | – | – | – | – | – | – | – | – | – | – |
| COc1ccnc(C(=O)NC(C(=O)OC(C)C(Oc2ccccc2)C(C)C)C(F)(F)F)c1OCOC(C)=O (mixture of isomers) [Cmpd 1073] | – | – | – | – | – | – | – | – | – | – | – | – | – | – | – | – | LV activity at 125.1 g/H SEPTTR 1DP (disease control rating) ([1]; low volume application, 125.1 g/H, 1 Day Protectant, wheat leaf blotch): B (≤ 80); LV activity at 125.1 g/H SEPTTR 3DC (disease control rating) ([1]; low volume application, 125.1 g/H, 3 Day Curative, wheat leaf blotch): B (≤ 80); LV activity at 125.1 g/H PUCCRT 1DP (disease control rating) ([2]; low volume application, 125.1 g/H, 1 Day Protectant, wheat brown rust): A (> 80); LV activity at 125.1 g/H PUCCRT 3DC (disease control rating) ([2]; low volume application, 125.1 g/H, 3 Day Curative, wheat brown rust): A (> 80) |
| CCCOC(CC)C(Oc1ccccc1)C(C)OC(=O)C(C)NC(=O)c1nccc(OC)c1O (stereo not shown) [Cmpd 289] | – | – | – | – | B (≤ 80) | A (> 80) | B (≤ 80) | A (> 80) | B (≤ 80) | A (> 80) | A (> 80) | A (> 80) | A (> 80) | A (> 80) | A (> 80) | A (> 80) | – |
| CCCOC(CC)C(Oc1ccccc1)C(C)OC(=O)C(NC(=O)c1nccc(OC)c1O)C(C)C (stereo not shown) [Cmpd 290] | – | – | – | – | B (≤ 80) | B (≤ 80) | B (≤ 80) | B (≤ 80) | B (≤ 80) | B (≤ 80) | A (> 80) | B (≤ 80) | A (> 80) | B (≤ 80) | A (> 80) | B (≤ 80) | – |
| CCCOC(CC)C(Oc1ccccc1)C(C)OC(=O)C(CC(C)C)NC(=O)c1nccc(OC)c1O (stereo not shown) [Cmpd 291] | – | – | – | – | D | D | D | D | D | D | B (≤ 80) | D | B (≤ 80) | D | B (≤ 80) | D | – |
| CC[C@H](Cc1ccccc1)[C@@H](OCC(C)C)[C@H](C)OC(=O)[C@H](C)NC(=O)c1nccc(OC)c1O [Cmpd 293, (S)-(2S,3R,4R)-4-benzyl-3-isobutoxyhexan-2-yl-2-(3-hydroxy-4-methoxypicolinamido)propanoate] | – | – | – | – | A (> 80) | B (≤ 80) | A (> 80) | B (≤ 80) | A (> 80) | B (≤ 80) | A (> 80) | B (≤ 80) | A (> 80) | B (≤ 80) | A (> 80) | B (≤ 80) | – |
| CCCOC(CC)C(Oc1ccccc1)C(C)OC(=O)C(C)NC(=O)c1nccc(OC)c1O (stereo not shown) [Cmpd 295] | – | – | – | – | D | B (≤ 80) | D | B (≤ 80) | D | B (≤ 80) | B (≤ 80) | B (≤ 80) | B (≤ 80) | B (≤ 80) | B (≤ 80) | B (≤ 80) | – |
